We go through eleven molecules from patent publication US20110306641A1, “NOVEL 2,6-SUBSTITUTED-3-NITROPYRIDINE DERIVATIVE, METHOD FOR PREPARING SAME, AND PHARMACEUTICAL PREPARATION INCLUDING SAME” (priority 2008, published 2011).

As usually defined, the inhibition is the relative decrease from the control value, in per cent.

The subject of one data set is MC3T3-E1 cell. The data set can be described thus: Alkaline phosphatase (ALP) activity in MC3T3-E1 cells. Format: cell-based. Particulars: 3 days; for activity at 1 µM: Mus musculus, 72 h, read-out: ALP activity (1 μM, % of Control) MC3T3-E1 cell. The protocol: (§1) Differentiation and activity of osteoblasts were indirectly evaluated by measuring an ALP activity having a close relationship with osteogenesis.
(§2) Osteoblasts (Calvarial cells) prepared in Experimental Example 1 and MC3T3-E1 cells (available from RIKEN Cell Bank, Japan) were collected in α-MEM supplemented with 10% FBS, followed by cell counting. The cells were dispensed into 24-well cultureware at a density of 2×10^4 cells/well. After culturing of the cells for 24 hours, the culture media were discarded and replaced with fresh media in which test compounds were diluted to a concentration of 1 μM (1 mL/well). In addition, the vehicle control group containing 0.1% DMSO was also treated. Under the conditions where the compounds were treated, the cells were cultured in a 5% CO2 […] at 37° for 3 days. When the experiment was terminated, the supernatant was removed and the cells were washed three times with cold phosphate buffer at 4°. 0.2% Triton X-100 was added to the washed cells which were then subjected to three cycles of freezing at −70° and thawing at room temperature for the complete lysis of cells. The cell extracts were pooled and centrifuged to collect the cell supernatant which was used for the measurement of ALP activity and proteins. The protein concentration was measured using a BCA assay kit (manufactured by Sigma-Aldrich). For the measurement of ALP activity, p-nitrophenylphosphate was added to the cell supernatant which was then incubated at 37° for 30 minutes, and the reaction was terminated with the addition of 50 μL of 0.2N sodium hydroxide. The standard curve was plotted at the absorbance of 405 nm using p-nitrophenol as a standard material and then the absorbance of test materials thus reacted was measured to determine the production amount of p-nitrophenol.
(§3) The ALP activity was calculated by dividing the amount of p-nitrophenol produced from each test material by the protein amount and the reaction time. Therefore, the unit of ALP activity was given in terms of p-nitrophenol/μg protein/min. The results are given in Table 3 where the ALP activity unit of each test material was given in terms of % change through the comparison between the individual test materials and the vehicle control group.

For data set [1], the system named is osteoclastogenesis (formation of multinucleated osteoclasts). The experiment in a line: Osteoclastogenesis inhibition via co-culture system (bone marrow cells + osteoblasts, TRAP staining). Format: cell-based, mouse. Conditions: 7 days co-culture, vs vehicle control; for inhibition at 1 µM: Mus musculus, Osteoclast, 168 h. The method, then:
Osteoclastogenesis inhibitory effects of the compounds of the present invention were evaluated via a co-culture system (Reference: Endocrinology 137(1996), 2187 to 2190, E. Jimi et al.). A specific experimental method is as follows.
1) Preparation of Bone Marrow Cells and Osteoblasts
Femur and tibia were aseptically dissected from 6 to 8-week-old male ddY mice to harvest bone marrow cells by a conventional method using a syringe. In brief, tissues were removed from the dissected bone, the bone ends were cut off with scissors, and the bone marrow was isolated by pushing a medium-containing syringe (23G) against the one end of the cut bone. The isolated bone marrow was subjected to repeated piston movement of a syringe such that single cells were obtained (Reference: Endocrinology 123(1988), 2600 to 2602, Takahashi et al.). After removal of red blood cells within the bone marrow, the bone marrow cells recovered by centrifugation were placed in an α-MEM supplemented with 10% fetal bovine serum (FBS), followed by counting of nucleated cells and then were immediately used for a co-culture system.
For the preparation of osteoblasts (Calvarial cells), the cranial bone were aseptically dissected from 1 to 2-day-old neonatal ICR mice and subjected to continuous reaction with a 0.2% collagenase solution to separate osteoblasts. The cell-suspended supernatant was centrifuged to recover osteoblasts which were grown to full confluence in an α-MEM supplemented with 10% FBS and then diluted to a desired cell density for use in the experiment.
2) Osteoclastogenesis Inhibition Experiment Via Co-Culture System
As the medium used for a co-culture system, a differentiation medium with the addition of differentiation factors 1α,25-dihydroxyvitamin D3 (10^−8M) and dexamethasone (10^−8M) to α-MEM supplemented with 10% FBS was used for the induction of osteoclastogenesis. First, the compounds of the present invention dissolved in dimethyl sulfoxide (DMSO) at a concentration of 1 mM were diluted to 2 μM using the above-mentioned differentiation medium. As a vehicle control group, 0.2% (v/v) DMSO was added to the medium. 100 μL/well of each medium was added to 96-well plates. In addition, the above prepared bone marrow cells and osteoblasts were plated onto 96-well plates at a density of 1×10^5 cells/50 μL/well and 3×10^3 cells/50 μL/well, respectively. The total volume/well was 200 μL and the final compound concentration was 1 μM. The control group was 0.1% (v/v) DMSO. The cells were cultured with exchange of the culture media with fresh media containing differentiation factors and test materials (materials containing the compounds of the present invention) at an interval of 2 to 3 days.
7 days after culturing of cells, the formation of multinucleated osteoclasts was confirmed by microscopic examination, the medium was removed from the wells and then the cells were fixed in a 10% phosphate-buffered formalin solution. The degree of formation of mature osteoclasts was measured taking advantage of the characteristics of osteoclasts showing a positive reaction to a tartrate-resistant acid phosphatase (TRAP) staining solution. The TRAP staining solution was prepared in a manner such that naphthol AS-MS phosphate as a substrate and a coloring agent (Fast Red Violet LB salt) were dissolved in N,N-dimethylformamide, and a 0.1N NaHCO3 buffer solution containing 50 mM of tartaric acid was added thereto. Among the TRAP-positive cells under a light microscope, multinucleated osteoclasts having 6 to 7 nuclei were regarded as mature osteoclasts.
The degree of inhibition of osteoclastogenesis was calculated according to the following equation 1. The results are summarized in Table 2 below (Experiments were carried out for 4 wells/experimental group (n=4), and the results are given in terms of mean±standard deviation) […]

The subject of data set [2] is Calvarial cell. The data set can be described thus: Alkaline phosphatase (ALP) activity in osteoblasts (Calvarial cells). Format: cell-based, mouse. Conditions: 3 days; for activity at 1 µM: Mus musculus, 72 h, read-out: ALP activity (1 μM, % of Control) Calvarial cell. The method, then: as §1, §2, §3
The subject of data set [3] is Calvarial cell. The experiment in a line: Cytotoxicity test (MTT) in osteoblasts (calvarial cells). Conditions: 1 μM, 72 hours, vs vehicle control.
Procedure: Drugs were diluted to a concentration of 2 μM in α-MEM culture media supplemented with 10% FBS. The vehicle control group was established to contain 0.2% DMSO. 100 μL/well of the diluted drugs were dispensed into 96-well plates to which osteoblasts (calvarial cells) prepared in Experimental Example 1 were then added at a density of 1.0×10^4 cells/100 μL/well. Here, the final compound concentration in the cell culture was 1 μM, and the vehicle control group contained 0.1% DMSO. The cells were cultured in a 5% CO2 inhibitorr at 37° for 72 hours. 25 μL of 3-(4,5-dimethyl-2-thiazolyl)-2,5-diphenyl-2H-tetrazolium bromide (MTT) dissolved in PBS (2 mg/mL) was added to each cell culture 4 hours before the end of culture. After completion of the reaction, the plates were centrifuged, the media were discarded, and 100 μL of formazan was added and dissolved in dimethyl sulfoxide (DMSO). Finally, the absorbance of the developed plates was measured at 540 nm. The cell viability was expressed as % concentration in comparison with the vehicle control group.

Take `O=[N+]([O-])c1ccc(NCCc2ccccn2)nc1Nc1ccc2cn[nH]c2c1` [Compound 14, 2-(1H-indazol-6-yl)amino-6-[(2-pyridyl)ethylamino]-3-nitropyridine]: the activity at 1 µM turned out to be 121% in the data set with MC3T3-E1 cell and 111% with Calvarial cell [2]. Moreover, in data set [1], the inhibition at 1 µM was found to be 98%. For the same molecule, in the data set with Calvarial cell [3], the “Cell viability (%) Calvarial cell” value was determined as 91%.
`CC(C)CNc1ccc([N+](=O)[O-])c(Nc2ccc3[nH]ncc3c2)n1` [Compound 8, 2-(1H-indazol-5-yl)amino-6-(isobutylamino)-3-nitropyridine]: the activity at 1 µM in the data set with MC3T3-E1 cell was 240%; in the data set on Calvarial cell [2], 157%. Besides, the inhibition at 1 µM in data set [1] was 100%. In addition, the “Cell viability (%) Calvarial cell” value in the data set on Calvarial cell [3] is recorded as 96%.
Regarding `CC(C)c1nccn1-c1ccc([N+](=O)[O-])c(Nc2ccc3[nH]ncc3c2)n1` [Compound 3, 2-(1H-indazol-5-yl)amino-6-(2-isopropylimidazol-1-yl)-3-nitropyridine], the activity at 1 µM in the data set with MC3T3-E1 cell amounted to 172%; in the data set on Calvarial cell [2], 148%. In addition, in data set [1], the inhibition at 1 µM worked out at 95%. Besides, the “Cell viability (%) Calvarial cell” value in the data set with Calvarial cell [3] is reported as 118%.
For the molecule `COCC(C)Nc1ccc([N+](=O)[O-])c(Nc2ccc3[nH]ncc3c2)n1` (stereo not shown) [Compound 22, 2-(1H-indazol-5-yl)amino-6-[(1-methyl-2-methoxy)ethylamino]-3-nitropyridine], the “Osteoclastogenesis inhibition (%)” value in data set [1] (1 μM) was found to be 100%. The “ALP activity (1 μM, % of Control) Calvarial cell” value in the data set on Calvarial cell [2] is reported as 119 % of Control. In the data set on Calvarial cell [3], the “Cell viability (%) Calvarial cell” value was determined as 99%.
As to `O=[N+]([O-])c1ccc(N2CCN(CCO)CC2)nc1Nc1ccc2cn[nH]c2c1` [Compound 19, 2-(1H-indazol-6-yl)amino-6-[4-(2-hydroxyethyl)piperazin-1-yl]-3-nitropyridine], the inhibition at 1 µM in data set [1] is 90%. The activity at 1 µM in the data set with Calvarial cell [2] is 132%. In the data set on Calvarial cell [3], the “Cell viability (%) Calvarial cell” value is reported as 100%.
In the case of “2-(1H-indazol-5-yl)amino-6-(2-methyl-4,5-dihydroimidazol-1-yl)amino-3-nitropyridine [Compound 1]”, the “ALP activity (1 μM, % of Control) MC3T3-E1 cell” value in the data set on MC3T3-E1 cell is 168 % of Control. Further, the “ALP activity (1 μM, % of Control) Calvarial cell” value with Calvarial cell [2] is 158 % of Control.
As to `O=[N+]([O-])c1ccc(NCc2ccncc2)nc1Nc1ccc2cn[nH]c2c1` [Compound 26, 2-(1H-indazol-6-yl)amino-6-[(4-pyridyl)methylamino]-3-nitropyridine], the inhibition at 1 µM in data set [1] was determined as 78%. Further, the activity at 1 µM with Calvarial cell [2] was 113%. In addition, the “Cell viability (%) Calvarial cell” value with Calvarial cell [3] was 106%.
As for `CN1CCN(c2ccc([N+](=O)[O-])c(Nc3ccc4[nH]ncc4c3)n2)CC1` [Compound 39, 2-(1H-indazol-5-yl)amino-6-(4-methylpiperazin-1-yl)-3-nitropyridine], in data set [1], the inhibition at 1 µM was 80%. For the same molecule, the activity at 1 µM with Calvarial cell [2] turned out to be 159%. In addition, the “Cell viability (%) Calvarial cell” value in the data set on Calvarial cell [3] is 97%.
On the same counts, the results for `CN1CCN(Nc2ccc([N+](=O)[O-])c(Nc3ccc4cn[nH]c4c3)n2)CC1` [Compound 23, 2-(1H-indazol-6-yl)amino-6-[(4-methylpiperazin-1-yl)amino]-3-nitropyridine] are 92%, 139% and 98%.
Regarding `O=[N+]([O-])c1ccc(NCCN2CCOCC2)nc1Nc1ccc2[nH]ncc2c1` [Compound 37, 2-(1H-indazol-5-yl)amino-6-[(2-morpholino)ethylamino]-3-nitropyridine], the activity at 1 µM was determined as 141% with MC3T3-E1 cell and 126% with Calvarial cell [2]. Moreover, the “Cell viability (%) Calvarial cell” value in the data set on Calvarial cell [3] is recorded as 94%.
Take `O=[N+]([O-])c1ccc(NC(CO)CO)nc1Nc1ccc2[nH]ncc2c1` [Compound 35, 2-(1H-indazol-5-yl)amino-6-[(2-hydroxy-1-hydroxymethyl)-ethylamino]-3-nitropyridine]: the “ALP activity (1 μM, % of Control) MC3T3-E1 cell” value in the data set on MC3T3-E1 cell is reported as 123 % of Control. In addition, in the data set with Calvarial cell [3], the “Cell viability (%) Calvarial cell” value is 104%.
